# Experiments:
# [1] = biological target: T1, Protoporphyrinogen IX oxidase (Zea mays, UniProt Q9FYV8); assay: Inhibition of protoporphyrinogen IX oxidase in Zea mays (maize) seed after 5 min by Dixon plot analysis; conditions: read-out: pI50 (converted)
# T1 sequence (Q9FYV8 whole entry): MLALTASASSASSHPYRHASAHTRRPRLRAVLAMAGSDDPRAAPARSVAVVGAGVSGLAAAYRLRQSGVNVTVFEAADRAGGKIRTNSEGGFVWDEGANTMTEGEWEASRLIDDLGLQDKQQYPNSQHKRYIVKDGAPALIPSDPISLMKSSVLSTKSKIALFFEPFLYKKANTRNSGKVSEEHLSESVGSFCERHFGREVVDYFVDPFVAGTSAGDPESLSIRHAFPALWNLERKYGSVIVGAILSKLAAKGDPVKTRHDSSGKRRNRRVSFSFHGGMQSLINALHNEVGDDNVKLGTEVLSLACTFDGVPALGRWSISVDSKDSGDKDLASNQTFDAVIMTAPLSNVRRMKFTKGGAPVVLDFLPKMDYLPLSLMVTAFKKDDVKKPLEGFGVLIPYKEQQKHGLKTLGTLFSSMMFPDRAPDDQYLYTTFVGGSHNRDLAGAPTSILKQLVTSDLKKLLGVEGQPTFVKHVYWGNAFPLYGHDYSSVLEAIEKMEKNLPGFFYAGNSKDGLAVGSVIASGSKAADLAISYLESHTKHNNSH
# Scenedesmus acutus = assay: Inhibition of light-induced ethane formation in Scenedesmus acutus after 20 hr; format: functional, organism-based; conditions: read-out: pI50 (converted)
smiles,measurement,setting,value
CCCCCOC(=O)COc1cc(N2C(=O)C3=C(CCCC3)C2=O)c(F)cc1Cl [FLUMICIORAC-PENTYL],IC50,[1],1.1 nM
O=C1C2=C(CCCC2)C(=O)N1c1ccc(Cl)cc1 [CHLOROPHTHALIUM],IC50,Scenedesmus acutus,1000 nM
same,IC50,[1],25.1 nM
CC(C)OC(=O)c1cc(N2C(=O)C3=C(CCCC3)C2=O)c(F)cc1Cl,IC50,Scenedesmus acutus,79.4 nM
same,IC50,[1],1.26 nM
C#CCN1C(=O)COc2ccc(N3C(=O)C4=C(CCCC4)C3=O)cc21,IC50,Scenedesmus acutus,631 nM
same,IC50,[1],1 nM
C#CCOc1cc(N2C(=O)C3=C(CCCC3)C2=O)c(F)cc1Cl,IC50,Scenedesmus acutus,126 nM
same,IC50,[1],2 nM
C#CCOc1cc(N2C(=O)C3=C(CCCC3)C2=O)ccc1Cl,IC50,Scenedesmus acutus,501 nM
same,IC50,[1],0.398 nM
COC(=O)CSc1cc(/N=c2\sc(=O)n3n2CCCC3)c(F)cc1Cl [FLUTHIACETMETHYL],IC50,Scenedesmus acutus,955 nM
same,IC50,[1],47.9 nM
C#CCN1C(=O)COc2cc(F)c(N3C(=O)C4=C(CCCC4)C3=O)cc21 [FLUMIOXAZIN],IC50,Scenedesmus acutus,316 nM
C#CCOc1cc(-n2nc3c(c2Cl)CCCC3)c(F)cc1Cl,IC50,[1],1 nM
O=C1C2=C(CCCC2)C(=O)N1c1ccc(Cl)cc1F,IC50,Scenedesmus acutus,251 nM
same,IC50,[1],3.98 nM
O=C1C2=C(CCCC2)C(=O)N1c1ccccc1,IC50,Scenedesmus acutus,10000 nM
same,IC50,[1],1580 nM
C#CC(C)Oc1cc(N2C(=O)C3=C(CCCC3)C2=O)c(F)cc1Cl (configuration not stated) [FLUMIPROPYN],IC50,Scenedesmus acutus,105 nM
same,IC50,[1],1 nM
O=C1C2=C(CCCC2)C(=O)N1c1ccccc1F,IC50,Scenedesmus acutus,10000 nM
same,IC50,[1],2510 nM
CC(C)=C1OC(=O)N(c2cc(OC3CCCC3)c(Cl)cc2F)C1=O [PENTOXAZONE],IC50,Scenedesmus acutus,631 nM
same,IC50,[1],5.25 nM
CC(C)OC(=O)c1cc(N2C(=O)C3=C(CCCC3)C2=O)ccc1Cl,IC50,Scenedesmus acutus,200 nM
same,IC50,[1],1 nM

# Reference: ChEMBL document CHEMBL3046049, “Protoporphyrinogen-IX Oxidase Inhibition by N-(2, 4, 5-Trisubstituted phenyl)-3, 4, 5, 6-tetrahydrophthalimides” (J Pestic Sci, 1997)
